Assay results: PubChem BioAssay (NCI)
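Abbreviation: GI50, concentration required for 50% inhibition of growth. TGI denotes the concentration required for complete inhibition of growth.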

Assays:
Assay in all cases: inhibition of tumour cell growth, NCI panel, 384-well format
[1] = test system: IGROV1 ovarian
[2] = test system: M14 melanoma
[3] = test system: COLO 205 colon
[4] = test system: CCRF-CEM leukemia
[5] = test system: SNB-75 CNS
[6] = test system: EKVX NSCLC
[7] = test system: A498 renal
[8] = test system: HOP-62 NSCLC
[9] = test system: LOX IMVI melanoma
[10] = test system: SK-MEL-28 melanoma
[11] = test system: KM12 colon
[12] = test system: MOLT-4 leukemia
[13] = test system: SW-620 colon
[14] = test system: NCI-H460 NSCLC
[15] = test system: UACC-257 melanoma
[16] = test system: SF-295 CNS
[17] = test system: MALME-3M melanoma
[18] = test system: UACC-62 melanoma
[19] = test system: DU-145 prostate
[20] = test system: RXF 393 renal
[21] = test system: SR leukemia
[22] = test system: MCF7 breast
[23] = test system: NCI-H322M lung
[24] = test system: SF-539 CNS
[25] = test system: UO-31 renal
[26] = test system: SK-OV-3 ovarian
[27] = test system: TK-10 renal
[28] = test system: RPMI-8226 leukemia
[29] = test system: NCI-H23 lung
[30] = test system: HOP-92 NSCLC
[31] = test system: SN12C renal
[32] = test system: HCC-2998 colon
[33] = test system: OVCAR-8 ovarian
[34] = test system: OVCAR-5 ovarian
[35] = test system: HT29 colon
[36] = test system: MDA-MB-231 breast
[37] = test system: CAKI-1 renal
[38] = test system: HL-60(TB) leukemia
[39] = test system: BT-549 breast
[40] = test system: K-562 leukemia
[41] = test system: HCT-15 colon
[42] = test system: SNB-19 CNS
[43] = test system: PC-3 prostate
[44] = test system: MDA-MB-468 breast
[45] = test system: HS 578T breast
[46] = test system: U251 glioblastoma
[47] = test system: 786-0 renal
[48] = test system: MDA-MB-435 melanoma
[49] = test system: NCI-H226 lung
[50] = test system: OVCAR-3 ovarian
[51] = test system: NCI-H522 lung
[52] = test system: SF-268 CNS
[53] = test system: ACHN renal
[54] = test system: NCI/ADR-RES ovarian
[55] = test system: SK-MEL-5 melanoma
[56] = test system: T-47D breast
[57] = test system: OVCAR-4 ovarian
[58] = test system: A549 NSCLC

SMILES: CC1(COc2ccc3c(c2)ncn3-c2ccc3cccc(N4CCC(N)CC4)c3n2)COC1
- GI50 [1]: 1670 nM
- TGI [1]: 3080 nM
- GI50 [2]: 1500 nM
- TGI [2]: 2830 nM
- GI50 [3]: 482 nM
- TGI [3]: 1630 nM
- GI50 [4]: 365 nM
- TGI [4]: 1400 nM
- GI50 [5]: 1530 nM
- TGI [5]: 2870 nM
- GI50 [6]: 1760 nM
- TGI [6]: 3410 nM
- GI50 [7]: 1670 nM
- TGI [7]: 3040 nM
- GI50 [8]: 556 nM
- TGI [8]: 1760 nM
- GI50 [9]: 636 nM
- TGI [9]: 1890 nM
- GI50 [10]: 1680 nM
- TGI [10]: 3050 nM
- GI50 [11]: 39.5 nM
- TGI [11]: 1450 nM
- GI50 [12]: 362 nM
- TGI [12]: 1170 nM
- GI50 [13]: 1100 nM
- TGI [13]: 2420 nM
- GI50 [14]: 479 nM
- TGI [14]: 1600 nM
- GI50 [15]: 2710 nM
- TGI [15]: 4190 nM
- GI50 [16]: 1580 nM
- TGI [16]: 2940 nM
- GI50 [17]: 1850 nM
- TGI [17]: 3250 nM
- GI50 [18]: 1460 nM
- TGI [18]: 2770 nM
- GI50 [19]: 1090 nM
- TGI [19]: 2350 nM
- GI50 [20]: 1560 nM
- TGI [20]: 2910 nM
- GI50 [21]: 185 nM
- TGI [21]: 430 nM
- GI50 [22]: 1350 nM
- TGI [22]: 2650 nM
- GI50 [23]: 1950 nM
- TGI [23]: 3490 nM
- GI50 [24]: 501 nM
- TGI [24]: 1930 nM
- GI50 [25]: 1550 nM
- TGI [25]: 2950 nM
- GI50 [26]: 1610 nM
- TGI [26]: 3000 nM
- GI50 [27]: 1710 nM
- TGI [27]: 3680 nM
- GI50 [28]: 242 nM
- TGI [28]: 708 nM
- GI50 [29]: 622 nM
- TGI [29]: 1880 nM
- GI50 [30]: 1180 nM
- TGI [30]: 2470 nM
- GI50 [31]: 250 nM
- TGI [31]: 1580 nM
- GI50 [32]: 1390 nM
- TGI [32]: 2730 nM
- GI50 [33]: 1180 nM
- TGI [33]: 2430 nM
- GI50 [34]: 1730 nM
- TGI [34]: 3410 nM
- GI50 [35]: 1630 nM
- TGI [35]: 3050 nM
- GI50 [36]: 1060 nM
- TGI [36]: 2500 nM
- GI50 [37]: 1000 nM
- TGI [37]: 2230 nM
- GI50 [38]: 275 nM
- TGI [38]: 901 nM
- GI50 [39]: 370 nM
- TGI [39]: 1410 nM
- GI50 [40]: 967 nM
- TGI [40]: 2150 nM
- GI50 [41]: 1450 nM
- TGI [41]: 2990 nM
- GI50 [42]: 1980 nM
- TGI [42]: 4520 nM
- GI50 [43]: 1690 nM
- TGI [43]: 3160 nM
- GI50 [44]: 532 nM
- TGI [44]: 1600 nM
- GI50 [45]: 573 nM
- TGI [45]: 1730 nM
- GI50 [46]: 1340 nM
- TGI [46]: 2700 nM
- GI50 [47]: 808 nM
- TGI [47]: 2070 nM
- GI50 [48]: 1280 nM
- TGI [48]: 2550 nM
- GI50 [49]: 1560 nM
- TGI [49]: 2990 nM
- GI50 [50]: 1560 nM
- TGI [50]: 3010 nM
- GI50 [51]: 441 nM
- TGI [51]: 1630 nM
- GI50 [52]: 1160 nM
- TGI [52]: 2440 nM
- GI50 [53]: 1150 nM
- TGI [53]: 2470 nM
- GI50 [54]: 1710 nM
- TGI [54]: 3390 nM
- GI50 [55]: 1370 nM
- TGI [55]: 2660 nM
- GI50 [56]: 2070 nM
- TGI [56]: 3560 nM
- GI50 [57]: 2180 nM
- TGI [57]: 3640 nM
- GI50 [58]: 1280 nM
- TGI [58]: 2630 nM
